In patent US5962534A, “Regulating gene expression using retinoids with CH2 OH or related groups at the side chain terminal position” (Cornell Research Foundation, Inc., priority 1997, dated 1999):
Read-outs that look alike come from different tables or passages of the source.

What was measured:
RAR-α = target: T1, RAR-α (Mus musculus, UniProt P11416); assay: Competitive binding of 3H-all-trans-retinoic acid to RAR-α; conditions: concentration to inhibit 50% binding of 3H-all-trans-retinoic acid (10 nM); mean ± SD, at least 3 replicate experiments
T1 construct: expressed in transfected cells; host or cells: COS-1
T1 sequence (P11416 1-462): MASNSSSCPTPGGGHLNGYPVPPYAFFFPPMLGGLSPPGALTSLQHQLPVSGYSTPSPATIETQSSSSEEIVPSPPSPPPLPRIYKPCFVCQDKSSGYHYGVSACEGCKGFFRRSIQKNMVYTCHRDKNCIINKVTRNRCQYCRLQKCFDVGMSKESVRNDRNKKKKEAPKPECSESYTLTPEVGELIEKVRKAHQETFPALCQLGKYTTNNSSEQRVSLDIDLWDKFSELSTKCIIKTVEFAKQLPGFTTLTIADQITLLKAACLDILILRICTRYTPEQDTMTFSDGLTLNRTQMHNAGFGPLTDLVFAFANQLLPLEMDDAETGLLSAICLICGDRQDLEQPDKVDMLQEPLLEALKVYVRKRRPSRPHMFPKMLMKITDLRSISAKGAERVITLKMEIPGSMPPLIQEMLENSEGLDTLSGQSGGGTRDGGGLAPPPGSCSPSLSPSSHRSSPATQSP
Experimental: (§6) Retinoids were assayed for their ability to bind members of the family of the retinoic acid receptors, the RARs, as follows:
(§7) COS-1 cells were transfected by DEAE-dextran with pSG5 expression vectors containing cDNAs for mouse RARs α, β, or γ or RXRs α, β, or γ. […] Nucleosol or cytosol fractions were prepared as described in Nervi, C., et al (30) and Nervi, C., et al (31) and stored at -70° C. until use. Aliquots of nucleosol or cytosol were incubated in nuclei lysis buffer as described in Nervi, C., et al (30) with tritiated ligands for 4 h at 4° C. […] For competitive binding assays, the incubations were performed with increasing concentrations of unlabeled competing ligand and a fixed concentration of the radioligand (10 nM ^3 H-retinoic acid). In saturation kinetic studies, incubations were performed in the presence of increasing concentrations of the indicated radioligand. For all binding assays, bound was separated from free radioactivity as described in Levin, A. A., et al (29).

RXRs α, β, or γ = assay: Inhibition of 3H-9-cis retinoic acid binding to RXRs; design: species or system mouse; conditions: for inhibition of 3H-9-cis retinoic acid binding to RXRs: data not shown
From the text: See Levin, A. A., et al (29).

[1] = tested on: cellular retinoic acid binding protein I (CRABP I); assay: Inhibition of all-trans-3H-retinoic acid binding to CRABP I; conditions: data not shown
[2] = tested on: RARE-β-galactosidase (F9-RARE-β-galactosidase reporter cell line); assay: Transcription of RARE-β-galactosidase in F9-RARE-β-galactosidase reporter cell line; type: cell-based; conditions: Mus musculus; media lacking serum
Experimental: Cells were treated with different concentrations of retinoids in media lacking serum, harvested and assayed for β-galactosidase activity. […] The β-galactosidase activity in this cell line reflects the activation of the RARs.

Hoxa-1 = Hoxa-1 gene expression in F9 stem cells by Northern blot; type: cell-based; conditions: Mus musculus, F9, 72 h, read-out: Hoxa-1 transcripts induction
From the text: (§1) Teratocarcinoma stem cells can be induced to differentiate in monolayer culture by retinoic acid over a 3-4 day period into nonmalignant endoderm cells resembling the extraembryonic endoderm of the mouse blastocyst as described in Gudas, L. J., et al (27). The F9 teratocarcinoma stem cell line is used as a model tumor cell differentiation system because F9 stem cells share similar biochemical, immunological and morphological characteristics with early mouse embryonic stem cells and additionally, large numbers of cells can be cultured and experimentally manipulated. The expression of several homeobox genes including Hoxa-1 is induced by RA in mouse teratocarcinoma cell lines as described in LaRosa, G. J., et al (34) and LaRosa, G. J., et al (35). […] See LaRosa, G. L, et al (34). Other genes such as laminin B1 are activated subsequent to the activation of Hox 1.6 by retinoic acid as described in Vasios, G. W., et al (36).

laminin B1 = assay: Laminin B1 gene expression in F9 stem cells by Northern blot; type: cell-based; conditions: Mus musculus, F9, 72 h, read-out: Laminin B1 expression induction
From the text: as §1

[3] = Metabolism of 3H-4-hydroxyretinol in F9 cells (HPLC); type: in vitro ADME, mouse; conditions: mouse, f9 cells; 50 nM, 15 h; virtually identical in stem and retinoic acid-treated cells; read-out: conversion of 4-hydroxyretinol to 4-oxo-retinol
Experimental: (§2) ^3 H-4-hydroxyretinol and ^3 H-4-oxo-retinol were purified from RA treated, differentiated F9 cells (ATCC CRL 1720) after the differentiated cells were incubated with ^3 H-retinol for 18 h. The identities of purified ^3 H-4-hydroxyretinol and ^3 H-4-oxo-retinol were verified by matching both the elution times on the HPLC and the spectra of known standards.
(§3) F9 stem cells or retinoic acid-treated cells (72 h) were cultured in the presence of 50 nM of either ^3 H-4-hydroxyretinol or ^3 H-4-oxo-retinol for different periods of time.
(§4) FIGS. 4A-4D depict HPLC analysis after incubation in the presence of 50 nM ^3 H-4-hydroxyretinol for periods of time as indicated and extraction using the method described in McClean, S. W., et al (15). F9 stem cells are shown in FIGS. 4A-4D to convert 4-hydroxyretinol to 4-oxo-retinol. The rate of this conversion was virtually identical in both stem and retinoic acid-treated cells. This rate was calculated to be about 20% in a period of 15 h.

F9 stem cells [4] = assay: as above; type: in vitro ADME, mouse; conditions: besides 4-oxo-retinol; 50 nM
Experimental: as §2, §3, §4

[5] = tested on: advanced head and neck cancer; assay: Treatment of patients with advanced head and neck cancer; type: in vivo, human; conditions: oral, 100 mg/square meter per day; for survival beyond the median: and/or reduced tumor burden
From the text: Current systemic chemotherapy regimens are unable to prolong survival of patients with advanced head and neck cancer.

breast cancer = assay: Treatment of patients with breast cancer; type: in vivo, human; conditions: oral, 100 mg/square meter per day
deep (cystic) acne = assay: Treatment of patients with deep (cystic) acne; type: in vivo, human; conditions: oral, 100 mg/square meter per day; for mean reduction in lesion counts: end of 3 to 6 months; for acne clearance: after discontinuation
From the text: A very prolonged remission, and potentially permanent cure can be obtained.

psoriatic arthritis = assay: Treatment of patients with psoriatic arthritis; type: in vivo, human; conditions: oral, 50 mg/square meter per day
[6] = tested on: aging or photodamaged skin; assay: Treatment of patients with aging or photodamaged skin; type: in vivo, human; conditions: oral 100 mg/square meter per day or topical 10 mg per square inch per day, 4 to 8 months
RAR-β = target: T2, RAR-β (Mus musculus, UniProt P22605); assay: Competitive binding of 3H-all-trans-retinoic acid to RAR-β
T2 sequence (P22605 1-448 isoform P22605-3): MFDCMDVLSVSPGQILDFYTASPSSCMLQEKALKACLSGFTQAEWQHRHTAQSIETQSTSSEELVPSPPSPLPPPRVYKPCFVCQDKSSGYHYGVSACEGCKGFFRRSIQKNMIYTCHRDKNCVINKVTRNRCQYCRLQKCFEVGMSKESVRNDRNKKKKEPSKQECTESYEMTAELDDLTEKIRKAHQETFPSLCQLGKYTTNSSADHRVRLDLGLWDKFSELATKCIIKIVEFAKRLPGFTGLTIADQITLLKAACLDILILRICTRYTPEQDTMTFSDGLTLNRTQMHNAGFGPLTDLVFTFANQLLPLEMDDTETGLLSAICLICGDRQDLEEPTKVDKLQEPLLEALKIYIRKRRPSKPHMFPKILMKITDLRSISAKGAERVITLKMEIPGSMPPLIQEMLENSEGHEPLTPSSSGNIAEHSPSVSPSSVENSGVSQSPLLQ
Experimental: as §6, §7

RAR-γ = target: T3, RAR-γ (Mus musculus, UniProt P18911); assay: Competitive binding of 3H-all-trans-retinoic acid to RAR-γ
T3 sequence (P18911 1-458): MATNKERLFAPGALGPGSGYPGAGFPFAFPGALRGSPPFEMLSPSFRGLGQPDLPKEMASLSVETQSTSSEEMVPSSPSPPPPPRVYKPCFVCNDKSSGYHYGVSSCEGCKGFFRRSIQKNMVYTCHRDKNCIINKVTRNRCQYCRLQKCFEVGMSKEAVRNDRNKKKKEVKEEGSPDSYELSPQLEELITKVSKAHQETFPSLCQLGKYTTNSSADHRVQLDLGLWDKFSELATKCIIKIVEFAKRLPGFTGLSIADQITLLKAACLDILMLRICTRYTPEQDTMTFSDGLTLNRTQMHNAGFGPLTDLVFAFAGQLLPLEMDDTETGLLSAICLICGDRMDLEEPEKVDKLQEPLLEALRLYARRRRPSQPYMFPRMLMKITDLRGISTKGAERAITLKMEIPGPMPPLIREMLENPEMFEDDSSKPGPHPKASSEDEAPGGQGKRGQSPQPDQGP
Experimental: as §6, §7

[7] = Metabolism / half-life of retinoids in F9 cells; type: in vitro ADME, mouse; conditions: mouse; 50 nM; F9 stem or differentiating cells; FIG. 5
Experimental: as §2, §3
(§5) FIGS. 5A-5D depict HPLC analysis after incubation in the presence of 50 nM ^3 H-4-oxo-retinol for periods of time as indicated and extraction using the method described in McClean, S. W., et al (15). The results are the same in both stem and retinoic acid- treated cells.

F9 stem cells [8] = assay: Metabolism / half-life of retinoids in F9 cells; type: in vitro ADME, mouse
Experimental: as §2, §3, §5

Water solubility = type: physicochemical; conditions: no data shown
[9] = tested on: acute promyelocytic leukemia; assay: Treatment of acute promyelocytic leukemia patients; type: in vivo, human; conditions: oral, 100 mg/square meter per day
Experimental: Patients with morphologic diagnostic criteria for acute promyelocytic leukemia (M3 or M3 variant subtype) by karyotyping or PCR analysis, including the […] (q22; q12-21) translocation, are treated with oral all-trans-4-oxo-retinol at a dose of 100 mg/square meter of body surface area per day. The drug is formulated in soft gelatin capsules which are administered once or twice a day to provide the dose as stated. The drug is administered for 40 to 60 days until remission induction occurs as indicated by normal karyotype, disappearance of coagulation abnormalities (e.g., increased platelet count and plasma fibrinogen level), observation of differentiation of cancer cells and the appearance of mature granulocytic markers in cell surface immunophenotyping, as indicated by reduced number of cells expressing CD33 and greater portion of cells expressing CD16. Patients with newly diagnosed disease then receive all-trans-4-oxo-retinol for 30 days after remission induction; then, either conventional consolidation therapy (e.g., cytosine arabinoside) or continued treatment with all-trans-4-oxo-retinol alone is continued. During remission induction, liver function tests are performed and serum cholesterol and triglycerides are measured twice a week and bone marrow aspiration is performed once a week until complete remission or failure is documented.

F9 stem cells [10] = assay: Intracellular concentration in differentiating F9 stem cells; type: in vitro ADME, mouse; conditions: calculated
RARs α, β, or γ [11] = conditions: Mangelsdorf et al (14); cited from earlier work
F9 stem cells [12] = conditions: refs (37), (38), cited from earlier work
RARs α, β, or γ [13] = assay: Inhibition of 3H-all-trans-retinoic acid binding to RARs (stated for all subtypes together); conditions: concentrations up to 50,000 nM
Experimental: as §6, §7

SMILES | IC50 (RAR-α) [µM] | inhibition of 3H-9-cis retinoic acid binding to RXRs (RXRs α, β, or γ) | inhibition of binding of all-trans-3H-retinoic acid to CRABP I [1] | EC50 [2] [µM] | fold induction at 1 µM (Hoxa-1) | fold induction at 1 µM (laminin B1) | tumor burden, head and neck cancer [5] | survival beyond the median [5] | tumor burden, breast cancer (breast cancer) | mean reduction in lesion counts (deep (cystic) acne) | acne clearance (deep (cystic) acne) | psoriatic arthritis symptoms (psoriatic arthritis) | wrinkles, smoothness, pigmented areas of skin [6] | IC50 (RAR-β) [µM] | IC50 (RAR-γ) [µM] | further results
CC1=C(/C=C/C(C)=C/C=C/C(C)=C/CO)C(C)(C)CCC1O (stereo not drawn) [4-OH retinol] | 5 ± 1.4 | Neither the 4-hydroxyretinol nor the 4-oxo-retinol inhibited | unable to inhibit | 0.076 | 9 | 3 | reduced tumor burden | 4-6 months | reduced tumor burden | greater than 85% | in some cases complete clearance occurs | fewer tender joints and a decreased duration of morning stiffness | fewer and reduced depth of wrinkles, increased smoothness of the skin, and a reduction in pigmented areas of the skin | 3.8 ± 1.1 | 3.4 ± 1.6 | metabolised at 15 h, 0.05 µM [3]: ~20%; other metabolites of 4-hydroxyretinol (F9 stem cells [4]): No other metabolite
CC1=C(/C=C/C(C)=C/C=C/C(C)=C/CO)C(C)(C)CCC1=O [4-oxo-retinol, all-trans-4-oxo-retinol] | 0.33 ± 0.054 | Neither the 4-hydroxyretinol nor the 4-oxo-retinol inhibited | unable to inhibit | 0.042 | 25 | 7 | reduced tumor burden | 4-6 months | reduced tumor burden | greater than 85% | in some cases complete clearance occurs | fewer tender joints and a decreased duration of morning stiffness | fewer and reduced depth of wrinkles, increased smoothness of the skin, and a reduction in pigmented areas of the skin | 0.42 ± 0.11 | 3.2 ± 0.52 | half-life at 0.05 µM [7]: > 15 h; half-life in F9 stem cells (F9 stem cells [8]; 50 nM, order of magnitude in words): on the order of days; metabolites of 4-oxo-retinol detected (F9 stem cells [8]; 50 nM, presumed 4-oxo-retinyl esters): small amounts of several very hydrophobic retinoids; stability in F9 stem vs differentiating cells (F9 stem cells [8]; comparison of F9 stem and differentiating cells): equally stable; induction of enzyme degrading the retinoid (F9 stem cells [8]; summary statement, vs all-trans-retinoic acid): does not induce production of enzyme which degrades it to inactive form; 4-oxo-retinoic acid formed from 4-oxo-retinol (F9 stem cells [8]; up to 15 h, 50 nM): No 4-oxo-retinoic acid was detected; water solubility compared with all-trans-retinoic acid (Water solubility): more water soluble; outcome of treatment in acute promyelocytic leukemia [9]: Long term cures are considered to be obtainable; intracellular concentration (F9 stem cells [10]): approximately 85 nM; inhibition of 3H-retinoic acid binding to RAR-γ, fold weaker than RAR-α and RAR-β (RAR-γ; relative to RAR-α and RAR-β, 240 min): 10 fold
CC1=C(/C=C/C(C)=C/C=C/C(C)=C/C(=O)O)C(C)(C)CCC1 [RA, all-trans-retinoic acid] |  |  |  | 0.009 |  |  |  |  |  |  |  |  |  |  |  | binding to α-, β- and γ-retinoic acid receptors (RARs α, β, or γ [11]): binds equally well to α-, β-, and γ-retinoic acid receptors; half-life in differentiated retinoic acid-treated F9 stem cells (F9 stem cells [12]; differentiated, enzyme induced): < 3 h; half-life in F9 stem cells (F9 stem cells [12]; undifferentiated): 3 h
CC1=C(/C=C/C(C)=C/C=C/C(C)=C/CO)C(C)(C)CCC1 [retinol, reference compound] |  |  |  | > 3 | 4 | 2 |  |  |  |  |  |  |  |  |  | inhibition of 3H-9-cis retinoic acid binding to the RXRs (RXRs α, β, or γ; concentrations up to 50,000 nM): no apparent inhibition; inhibition of all-trans-3H-retinoic acid binding to any of the RARs (RARs α, β, or γ [13]): no apparent inhibition
